Results published in patent US10906905B2, “Five-membered heteroaryl ring bridged ring derivative, preparation method therefor and medical use thereof” (Jiangsu Hengrui Medicine Co., Ltd., priority 2016, dated 2021).

Assays:
[1] = Pharmacokinetics assay in rats after intragastrical administration; assay type: in vivo; conditions: both sexes, Sprague-Dawley, rat, plasma, po, SD rats, 2 mg/kg; for Vd/F: read-out: Apparent distribution volume Vz/F; for AUC: read-out: Area under curve AUC; for CL/F: read-out: Clearance CLz/F; for half-life: read-out: Half-life T1/2 (converted); for Cmax: read-out: Plasma concentration Cmax; for MRT: read-out: Residence time MRT
Procedure: Rats were used as test animals. The drug concentration in plasma at different time points was determined by LC/MS/MS method after intragastrical administration of the compounds of Examples 1-1, 1-2, 2-1, 3-1, the compound with retention time of 6.631 minutes among Examples 9-1 and 9-2, and the compounds of Examples 33 and 39-1 to rats. The pharmacokinetic behavior of the compounds of the present invention was studied and evaluated in rats.
Compounds of Examples 1-1, 1-2, 2-1, 3-1, compound with retention time of 6.631 minutes among Examples 9-1 and 9-2, and compounds of Examples 33 and 39-1.
Twenty-eight healthy adult Sprague-Dawley (SD) rats (half male and half female) were purchased from SINO-BRITISH SIPPR/BK LAB. ANIMAL LTD., CO, with Certificate No.: SCXK (Shanghai) 2008-0016, and equally divided into 7 groups (4 rats per group).
A certain amount of the test compound was weighed, and added with 5% by volume of DMSO, 5% by volume of Tween 80, and 90% by volume of physiological saline were added to prepare a 0.2 mg/mL colorless, clear and transparent solution.
After an overnight fast, SD rats were administered intragastrically the test compounds at an administration dosage of 2.0 mg/kg and an administration volume of 10.0 mL/kg.
The rats were intragastrically administered the compounds of Examples 1-1, 1-2, 2-1, 3-1, the compound with retention time of 6.631 minutes among Examples 9-1 and 9-2, and the compounds of Examples 33 and 39-1.0.2 mL of blood was taken from the orbital sinus before administration and at 0.5, 1.0, 2.0, 4.0, 6.0, 8.0, 11.0 and 24.0 hours after administration. The samples were stored in heparinized tubes, and centrifuged for 10 minutes at 4° C. at 3,500 rpm to separate the blood plasma. The plasma samples were stored at −20° C. The rats were fed 2 hours after administration.
The content of the test compounds in the plasma of rats after intragastrical administration of the test compounds at different concentrations was determined: 25 μL of rat plasma at each time after administration was taken, added with 50 μL (100 ng/mL) of the internal standard solution of camptothecin and 175 μL of acetonitrile, shaken vertically for 5 minutes, and centrifuged for 10 minutes (4000 rpm). 3.0 μL of the supernatant was taken from the plasma samples for LC/MS/MS analysis.

[2] = tested on: NIH3T3 cell; test: Inhibition of NIH3T3 cell proliferation (CellTiter-Glo); assay type: cell-based; conditions: Mus musculus, 72 hours, 0.5% FBS
Procedure: The inhibition effect of the compounds of the present invention on NIH3T3 cell proliferation was determined by the following in vitro test.
The inhibition effect of the compounds of the present invention on NIH3T3 cell proliferation was determined by the following experimental method:
On a 96-well white plate with transparent bottom (3903, Corning), 100 μL of NIH3T3 cell (GNM6, Cell Bank of Typical Culture Collection Committee of Chinese Academy of Sciences) was seeded in a DMEM medium containing 10% FBS in each well. The seeding density is 2000 cells/well. The cells were incubated overnight at 37° C., 5% CO2. After overnight incubation, each well was replaced with 90 μL of DMEM medium containing 0.5% FBS. 10 μl of a 3-fold gradient dilution of the compounds with DMEM medium containing 0.5% FBS was then added, and the plate was incubated for 72 hours in a cell incubator at 37° C., 5% CO2. Finally, 50 μL of CellTiter-Glo (G7573, Promega) was added to each well. After incubation for 10 minutes at room temperature, the chemiluminescence signal values were measured with a Victor 3 microplate reader (PerkinElmer). The IC50 values of the compounds were calculated using Graphpad Prism software based on each concentration of the compound and the corresponding signal value thereof.

[3] = biological target: TGFβRI kinase ALK5 (Homo sapiens (Human), UniProt P36897); test: Inhibition of TGFβRI kinase ALK5 activity (TGFβRI kinase assay kit, ADP-Glo); assay type: biochemical; conditions: ATP 50 μM; read-out: IC50 of inhibition effect on TGFβRI kinase ALK5 activity
In short: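 Kinase reaction: 2 ng/μL enzyme in Tris pH 7.5, MgCl2, BSA buffer with 50 μM ATP and 0.2 μg/μL substrate peptide, 2.5 h at 27 °C. ADP formation read by ADP-Glo luminescence over 3-fold compound dilutions; IC50 calculated from signal versus concentration.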

[4] = biological target: p38α kinase (Homo sapiens (Human), UniProt Q16539); test: Inhibition of p38α kinase activity (p38α kinase assay kit, ADP-Glo); assay type: biochemical; conditions: ATP 50 μM; read-out: IC50 of inhibition effect on p38α kinase activity
Procedure: The inhibition of p38α kinase activity in vitro was determined by the following method.
The inhibition effect of the compounds of the present invention on p38a kinase activity was determined by the following experimental method:
p38α kinase assay kit (V9591, Promega) was used to assay enzyme activity. 2 μl of enzyme solution (the final concentration of enzyme in the reaction system was 0.5 ng/μL) formulated with reaction buffer (40 mM Tris pH 7.5, 20 mM MgCl2, 0.1 mg/ml BSA), 1 μl of a 3-fold gradient dilution of the compounds dissolved in 5% DMSO, and 2 μl of a mixed solution of ATP and p38 substrate peptide (the final concentration of ATP was 50 μM, and the final concentration of substrate was 0.2 μg/μL) were added successively to a 384-well plate (4514, Corning). After reaction at 27° C. for 2.5 hours, 5 μl of ADP-Glo solution in the kit was added to each well, then the plate was placed at 27° C. for 40 minutes. 10 μl of kinase assay reagent was then added to each well, then the plate was placed at 27° C. for 30 minutes. The chemiluminescence signal values were measured with a Victor 3 (PerkinElmer) multi-function microplate reader. The IC50 values of the compounds on enzyme inhibition were calculated using Graphpad prism software based on each concentration of the compound and the corresponding signal value thereof.

TGFβRI kinase ALK5, sequence (P36897 34-503): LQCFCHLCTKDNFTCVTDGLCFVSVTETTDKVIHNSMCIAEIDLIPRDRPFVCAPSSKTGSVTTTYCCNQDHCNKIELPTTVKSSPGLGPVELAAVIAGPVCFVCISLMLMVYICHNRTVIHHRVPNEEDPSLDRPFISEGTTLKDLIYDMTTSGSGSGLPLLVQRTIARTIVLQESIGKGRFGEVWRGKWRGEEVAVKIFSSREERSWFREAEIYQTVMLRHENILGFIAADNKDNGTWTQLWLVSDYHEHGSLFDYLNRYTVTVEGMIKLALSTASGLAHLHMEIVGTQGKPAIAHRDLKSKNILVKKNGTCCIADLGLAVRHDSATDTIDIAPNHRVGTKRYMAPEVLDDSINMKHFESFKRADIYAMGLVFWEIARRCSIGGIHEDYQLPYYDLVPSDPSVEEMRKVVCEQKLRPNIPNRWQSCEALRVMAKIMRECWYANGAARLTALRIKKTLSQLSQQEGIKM
p38α kinase, sequence (Q16539 whole entry): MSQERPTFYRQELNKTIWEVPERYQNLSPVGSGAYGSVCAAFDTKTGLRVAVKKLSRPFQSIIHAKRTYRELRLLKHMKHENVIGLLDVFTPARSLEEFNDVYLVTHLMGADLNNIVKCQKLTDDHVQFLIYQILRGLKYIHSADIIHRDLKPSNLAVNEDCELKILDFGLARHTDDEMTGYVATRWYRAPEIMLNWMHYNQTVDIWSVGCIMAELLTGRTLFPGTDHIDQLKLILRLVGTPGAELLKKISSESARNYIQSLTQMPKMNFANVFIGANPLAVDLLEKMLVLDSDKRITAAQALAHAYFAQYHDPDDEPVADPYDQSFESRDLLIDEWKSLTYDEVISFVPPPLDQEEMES

Row | Structure (SMILES) | Vd/F [1] [L/kg] | AUC [1] [ng·h/mL] | CL/F [1] [mL/min/kg] | half-life [1] [h] | Cmax [1] [ng/mL] | MRT [1] [h] | IC50 [2] [nM] | IC50 [3] [nM] | IC50 [4] [nM]
1 | Cc1cccc(-c2nc3n(c2-c2ccc4nccc(C(N)=O)c4c2)[C@H]2CC[C@@H]3C2)n1 [Example 1-1, 6-((5S,8R)-2-(6-Methylpyridin-2-yl)-5,6,7,8-tetrahydro-5,8-methanoimidazo[1,2-a]pyridin-3-yl)quinoline-4-carboxamide] | 23.5 ± 19.4 | 637 ± 355 | 68.6 ± 39.2 | 3.42 ± 1.29 | 208 ± 61 | 3.88 ± 0.26 | 89 | 9 | 618
2 | Cc1cccc(-c2nc3n(c2-c2ccc4nnc(C(N)=O)n4c2)[C@H]2CC[C@@H]3C2)n1 [Example 2-1, 6-((5S,8R)-2-(6-Methylpyridin-2-yl)-5,6,7,8-tetrahydro-5,8-methanoimidazo[1,2-a]pyridin-3-yl)[1,2,4]triazolo[4,3-a]pyridine-3-carboxamide] | 7.8 ± 1.33 | 664 ± 93 | 50.8 ± 7.2 | 1.77 ± 0.2 | 351 ± 52 | 2.3 ± 0.37 | 44 | 3 | 1710
3 | Cc1cccc(-c2nc3n(c2-c2ccnc(-c4ccc(S(C)(=O)=O)cc4)c2)[C@H]2CC[C@@H]3C2)n1 [Example 3-1, (5S,8R)-2-(6-Methylpyridin-2-yl)-3-(2-(4-(methylsulfonyl)phenyl)pyridin-4-yl)-5,6,7,8-tetrahydro-5,8-methanoimidazo[1,2-a]pyridine] | 3.3 ± 1.1 | 800 ± 208 | 43.4 ± 10.4 | 0.868 ± 0.1 | 502 ± 128 | 1.43 ± 0.06 | 28 | 4 | 686
4 | NC(=O)c1ccnc2ccc(-c3c(-c4ccc(F)cn4)nc4n3[C@H]3CC[C@@H]4C3)cc12 [Example 39-1, 6-((5S,8R)-2-(5-Fluoropyridin-2-yl)-5,6,7,8-tetrahydro-5,8-methanoimidazo[1,2-a]pyridin-3-yl)quinoline-4-carboxamide] | 18.3 ± 17.4 | 689 ± 609 | 121 ± 116 | 2.06 ± 0.86 | 317 ± 269 | 2.44 ± 1.16 | 88 | 26 | 4730
